In one experiment the target is T1, LeETR1 (Solanum lycopersicum, UniProt Q41342).
T1 construct: made in house; host or cells: E. coli
T1 sequence (Q41342 1-754): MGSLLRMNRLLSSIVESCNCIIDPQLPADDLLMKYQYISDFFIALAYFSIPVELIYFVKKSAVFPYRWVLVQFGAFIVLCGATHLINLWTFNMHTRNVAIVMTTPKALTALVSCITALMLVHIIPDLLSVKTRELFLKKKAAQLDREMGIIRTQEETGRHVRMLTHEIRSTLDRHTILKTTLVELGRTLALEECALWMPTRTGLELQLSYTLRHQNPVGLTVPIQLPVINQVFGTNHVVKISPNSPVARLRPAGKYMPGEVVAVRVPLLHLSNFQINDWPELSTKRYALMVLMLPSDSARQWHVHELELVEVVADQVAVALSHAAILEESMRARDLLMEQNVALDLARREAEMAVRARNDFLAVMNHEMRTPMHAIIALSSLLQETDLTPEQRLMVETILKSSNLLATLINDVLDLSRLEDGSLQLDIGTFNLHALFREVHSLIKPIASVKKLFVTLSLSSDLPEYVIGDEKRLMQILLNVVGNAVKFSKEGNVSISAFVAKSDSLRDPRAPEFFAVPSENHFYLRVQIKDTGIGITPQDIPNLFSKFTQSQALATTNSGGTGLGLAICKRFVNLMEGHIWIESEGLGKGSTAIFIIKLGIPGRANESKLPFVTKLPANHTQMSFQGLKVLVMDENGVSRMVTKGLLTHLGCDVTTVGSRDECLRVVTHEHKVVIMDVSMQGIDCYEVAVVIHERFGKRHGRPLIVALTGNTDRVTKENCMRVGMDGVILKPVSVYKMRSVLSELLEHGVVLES
As to the kind of experiment: MST NOP-1 binding to LeETR1. More on the design: species or system tomato. To be noted: 50 nM LeETR1 labeled with Alexa Fluor 488-Maleimide, NOP-1 3.8 nM to 31 μM, 50 mM Tris-HCl pH 8.0, 300 mM NaCl, 0.015% (w/v) Fos-Choline-16, 80% MST power, 1:1 stoichiometry, mean +/− standard deviation. The text has this:
To substantiate the inhibitory role of NOP-1 in LeEIN2-LeETR1 complex formation, NOP-1 binding to LeETR1 was studied by microscale thermophoresis (MST) as described in the Methods section. […] The Kd for the LeETR1-NOP1 interaction compares to the affinities of the EIN2-ETR1 interaction in Arabidopsis[10][11] and tomato (this work) emphasizing that the NOP-1 peptide can efficiently compete for ETR1 binding and disrupt EIN2-ETR1 complex formation.
Analysis of LeETR1-LeEIN2 complex formation, NOP-1 binding to LeETR1 and determination of the respective dissociation constants Kd was performed by MST[33][34][35]. For protein-protein interaction studies LeETR1 was labeled with Alexa Fluor 488 succinimidyl-ester (Life Technologies) in a buffer containing 50 mM potassium phosphate pH 8.0, 300 mM NaCl and 0.015% (w/v) Fos-Choline-16 according to the manufacturer’s protocol. […]
For quantification of NOP-1 binding to tomato receptor protein, recombinant LeETR1 was labeled with Alexa Fluor 488-Maleimide (Life Technologies) in a buffer containing 50 mM potassium phosphate pH 8.0, 300 mM NaCl, 0.015% (w/v) Fos-Choline-16 following the manufacturer’s protocol. […] Protein-peptide mixtures were transferred into glass capillaries and MST was measured with 80% MST power. […] The dissociation constant Kd was calculated according to a model assuming a 1:1 stoichiometry per binding partner.

The test system of experiment [1] is green, immature tomato fruits. On the set-up: method as in PMID 25843012. To be noted: cited from earlier work.

The Kd is the free concentration of one partner at which half of the binding sites on the other are occupied at equilibrium, for simple one-to-one binding. A lower Kd goes with tighter binding. At LeETR1, `CC(C)C[C@H](NC(=O)[C@H](CCCNC(=N)N)NC(=O)[C@H](CCCNC(=N)N)NC(=O)[C@H](CCCCN)NC(=O)[C@H](Cc1ccc(O)cc1)NC(=O)[C@H](CCCNC(=N)N)NC(=O)[C@H](CCCCN)NC(=O)[C@@H](N)CC(C)C)C(N)=O` [NOP-1, LKRYKRRL-NH2] registered an equilibrium dissociation constant (Kd) of around 150 nM. Also, the “effect on fruit ripening in tomato, previous work” value in experiment [1] is given as “efficiently reduced fruit ripening in tomato”.

Source of the values: PMC4967898, “Peptides interfering with protein-protein interactions in the ethylene signaling pathway delay tomato fruit ripening” (Scientific Reports, 2016).
